Laboratory results reported in US10059950B2, “Compositions comprising an internalizing nucleic acid molecule, and their methods of use” (B3 BIO, INC., priority 2012, dated 2018).
In the oligonucleotide strings, read from the 5' end, every base follows the letter of its sugar. An asterisk marks phosphorothioate; unmarked linkages are phosphodiester. Other units and linkages are bracketed, terminal groups are in braces. A string of capitals states the bases alone. r = 2'-OH (RNA); f = 2'-fluoro

B1: GGGAGGACGAUGCGGUACUUUCGGGCUUUCGGCAACAUCAGCCCCUCAGGACGCAAUUUCUC (nucleic acid)
chain: rGrGrGrArGrGrAfCrGrAfUrGfCrGrGfUrAfCfUfUfUfCrGrGrGfCfUfUfUfCrGrGfCrArAfCrAfUfCrArGfCfCfCfCfUfCrArGrGrAfCrGfCrArAfUfUfUfCfUfC
modifications: Alexa 647 label attached, position not given here, further chemistry not fully specified
notes: truncation of iNA E3, 62 bases
B2: D11: RNA iNA clone from Round 14 toggle selection, variable region SEQ ID NO:20 UCCCCGGAUUUCGGAUACGAUCCCUCAUCCCUUGACCGCA, 2′ fluoro pyrimidines (nucleic acid)
chain: rGrGrGrArGrGrAfCrGrAfUrGfCrGrGfUfCfCfCfCrGrGrAfUfUfUfCrGrGrAfUrAfCrGrAfUfCfCfCfUfCrAfUfCfCfCfUfUrGrAfCfCrGfCrArAfUfUfUfCfUfCfCfUrAfCfUrGrGrGrAfUrArGrGfUrGrGrAfUfUrAfU
modifications: Alexa 647 attached for internalization assay, further chemistry not fully specified

Tests used:
[1] = tested on: human prostate cancer cell line PC-3; test: Flow cytometric-based screening assay for internalization in PC-3 cells; type: cell-based
Method: In illustrating a screening process for internalization, from clones selected for further analysis from the selection process, a flow cytometric-based assay for binding and/or internalization was utilized. Typically, the assay was performed by incubating 200 nM of each clone with 5×10^5 target cells in 100 ul PBS containing 0.5% bovine serum albumin (BSA) in a 13 mm tube for 2 hours @ 37° C. A first portion of the cells was then treated with RNAse to remove any of the clone remaining bound to the surface of the cells, so as to allow detection and quantitation of internalized clone (i.e., measuring internalization). In parallel, a second portion of the cells was treated with PBS containing 0.5% BSA (lacking added RNase activity to enzymatically cleave […]), so as to allow detection and quantitation of clone remaining bound to the cell surface, as well as internalized clone (i.e., measuring binding and internalization). Following further washes with phosphate-buffered saline, the cells were fixed in 1% formaldehyde and then subjected to analysis on a flow cytometer using commercially available analysis software. In performing analyses by flow cytometry, several assay controls were used. As an assay control representing either no or background (e.g., non-specific) internalization, an RNA molecule resulting from a selection process for binding a molecule not detectably expressed on target cells was used. The assay control RNA molecule was further modified with Alexa 647, and then used for further characterization of clones from the selection process described herein. For ease of description and reference for this Example, this assay control RNA molecule is referred to herein as Negative Control 1 (see, e.g., Table 5). As an additional assay control that represents either no or background internalization, used was an RNA molecule from the starting library which was chosen from the library prior to beginning a selection method described herein, and that was further modified with Alexa 647. This assay control RNA molecule is referred to herein as Negative Control 2 (see, e.g., Tables 5, 7, and 8). Additionally, fluorescence of unstained cells was measured, as a control, to quantitate any background fluorescent properties of the cells themselves as encountered in analyses by flow cytometry (“Unstained”), as opposed to fluorescent signal mediated by the RNA molecules further modified to include Alexa 647. Shown in Table 5 are the results of analyses by flow cytometry in which measured and quantitated was the ability of clones, selected on the basis of sequence convergence, to internalize into target cells represented by human prostate cancer cell line PC-3. The units of fluorescence in Table 5 represent mean fluorescence (“Mean”). The fold increase (determined by dividing the mean fluorescence of a clone by the mean fluorescence of unstained cells) is an indicator of the ability of a clone, or a clone which has been further modified to include an effector moiety, to internalize into the target cells (Table 5; “Fold Increase”).
The truncations, illustrated in Table 6, were each further modified with a detectable moiety, Alexa 647, and analyzed by a flow cytometric-based screening assay for internalization using the methods outlined in Example 2, to determine minimal sequences that maintain the full ability to internalize into human prostate cancer cells. Shown in Table 7 are the results of analyses by flow cytometry in which measured and quantitated was the ability of each truncation to internalize into target cells represented by human prostate cancer cell line PC-3. The units of fluorescence in Table 7 represent mean fluorescence intensity (“Mean”). […]

[2] = tested on: WIL-2 B lymphoblastoid cell line transformed with Epstein Barr virus; test: Flow cytometric binding and internalization assay, WIL-2; type: cell-based, human; conditions: WIL-2, transformed cells
Method: (§1) In illustrating a screening process for internalization, from clones selected for further analysis from the selection process, a flow cytometric-based assay for binding and/or internalization was utilized. Typically, the assay was performed by incubating 200 nM of each clone with 5×10^5 target cells in 100 ul PBS containing 0.5% bovine serum albumin (BSA) in a 13 mm tube for 2 hours @ 37° C. A first portion of the cells was then treated with RNAse to remove any of the clone remaining bound to the surface of the cells, so as to allow detection and quantitation of internalized clone (i.e., measuring internalization). In parallel, a second portion of the cells was treated with PBS containing 0.5% BSA (lacking added RNase activity to enzymatically cleave […]), so as to allow detection and quantitation of clone remaining bound to the cell surface, as well as internalized clone (i.e., measuring binding and internalization). […] Additionally, fluorescence of unstained cells was measured, as a control, to quantitate any background fluorescent properties of the cells themselves as encountered in analyses by flow cytometry (“Unstained”), as opposed to fluorescent signal mediated by the RNA molecules further modified to include Alexa 647. […] The units of fluorescence in Table 5 represent mean fluorescence (“Mean”). […]

[3] = tested on: A549 human lung adenocarcinoma; test: Flow cytometric binding and internalization assay, A549; type: cell-based; conditions: A549, malignant
Method: as §1

[4] = tested on: MCF7 human breast adenocarcinoma; test: Flow cytometric binding and internalization assay, MCF7; type: cell-based; conditions: MCF7, malignant
Method: as §1

[5] = tested on: K562 human chronic myelogenous leukemia; test: Flow cytometric binding and internalization assay, K562; type: cell-based; conditions: K562, malignant
Method: as §1

[6] = tested on: PrEC human primary prostate epithelial cells; test: Flow cytometric binding and internalization assay, PrEC; type: cell-based; conditions: nonmalignant
Method: as §1

[7] = Table 7, truncations modified with Alexa 647, PC-3
[8] = Table 8, mutants of E3-45, PC-3

Molecule | Fold increase (mean fluorescence intensity / unstained cells) [1, 7] | Mean (mean fluorescence intensity) [1, 7] | Fold increase (mean fluorescence intensity / unstained cells) [1, 8] | Mean (mean fluorescence intensity) [1, 8] | ability to bind and internalize as compared to wildtype iNA (E3-45) ([1]; PC-3, in words) | further results
GGGAGGCUGGGCUUUCGGCAAC (rGrGrGrArGrGfCfUrGrGrGfCfUfUfUfCrGrGfCrArAfC; aptamer; Alexa 647 label attached, position not given here, further chemistry not fully specified) [E3-22, truncation of iNA E3, 22 bases] | 1.0 | 80.7 |  |  |  | 
GGGAGGCUUUCGGGCUUUCGGCAACAUCAGCC (rGrGrGrArGrGfCfUfUfUfCrGrGrGfCfUfUfUfCrGrGfCrArAfCrAfUfCrArGfCfC; aptamer; Alexa 647 label attached, position not given here, further chemistry not fully specified) [E3-32, truncation of iNA E3, 32 bases] | 11.8 | 944 |  |  |  | 
GGGUGCGGUACUUUCGGGCUUUCGGCAACAUCAGCCCCUCAGGACG (rGrGrGfUrGfCrGrGfUrAfCfUfUfUfCrGrGrGfCfUfUfUfCrGrGfCrArAfCrAfUfCrArGfCfCfCfCfUfCrArGrGrAfCrG; aptamer; Alexa 647 label attached, position not given here, further chemistry not fully specified) [E3-45, truncation of iNA E3, 45 bases; wildtype for mutants 1-8] | 8.6 | 690 | 5.4 | 470 |  | 
mutant 1: assay control mutant of E3-45, mutation in a loop not containing the conserved motif UUUCGG (GGGUGCGAAACUUUCGGGCUUUCGGCAACAUCAGCCCCUCAGACCG; listed as RNA, chemistry not fully specified) |  |  | 4.7 | 405 | ability to internalize equally | 
mutant 2: mutant of E3-45 with the conserved motif UUUCGG mutated in a loop portion (GGGUGCGGUACUAAAGGGCUUUCGGCAACAUCAGCCCAAAAGGACG; aptamer; listed as RNA, chemistry not fully specified) |  |  | 1.5 | 127 | loss of the ability to bind and internalize | 
mutant 3: mutant of E3-45 with the conserved motif UUUCGG mutated in a loop portion (GGGUGCGGUACUUUCGGGCUAAAGGCAACAUCAGCCCCUCAGGACG; aptamer; listed as RNA, chemistry not fully specified) |  |  | 1.6 | 142 | loss of the ability to bind and internalize | 
mutant 4: mutant of E3-45 with the conserved motif UUUCGG mutated in a loop portion (GGGUGCGGUACUUUCGGGCUUUCAAAAACAUCAGCCCCUCAGGACG; aptamer; listed as RNA, chemistry not fully specified) |  |  | 2.0 | 176 | loss of the ability to bind and internalize | 
mutant 5: site-directed mutant of E3-45 in a loop portion containing a conserved motif (GGGUGCGGUACUUUCGGGCUUUCGGCUUUAUCAGCCCCUCAGGACG; listed as RNA, further chemistry not given here) |  |  | 1.9 | 164 |  | 
mutant 6: site-directed mutant of E3-45 in a loop portion containing a conserved motif (GGGUGCGGUACUUUCGGGCUUUCGGCCCCAUCAGCCCCUCAGGACG; listed as RNA, further chemistry not given here) |  |  | 1.9 | 167 |  | 
mutant 7: site-directed mutant of E3-45 in a loop portion containing a conserved motif (GGGUGCGGUACUUUCGGGCUUUCGGCAACUAUAGCCCCUCAGGACG; listed as RNA, further chemistry not given here) |  |  | 1.8 | 153 |  | 
mutant 8: mutant of E3-45 with loop portion mutated to 5′ to 3′ UUUCGAG (GGGUGCGGUACUUUCGGGCUGGCACUUUCGAAAGCCCCUCAGGACG; listed as RNA, chemistry not fully specified) |  |  | 1.5 | 130 | loss of binding and internalization | 
B1 | 10.7 | 858 |  |  |  | 
B2 |  |  |  |  |  | Fold increase [2]: 11.4; Fold increase [3]: 3.2; Fold increase [4]: 11.7; internalization into cells (conclusion from Table 5) ([1]; PC-3, in words): mediate internalization into cells; Fold Increase (mean fluorescence of clone / unstained cells) ([1]; Table 5, 200 nM Alexa 647-modified clone, 2 hours @ 37° C., PC-3): 5.8; Mean (mean fluorescence) ([1]; Table 5, 200 nM Alexa 647-modified clone, 2 hours @ 37° C., flow cytometry, PC-3): 460; Fold increase ([1]; Table 9, PC3, malignant): 5.8; Fold increase [5]: 19.0; Fold increase [6]: 2.7
